Experimental data taken from patent US20100160262A1, “COMPOSITIONS AND METHODS FOR MODULATING SIRTUIN ACTIVITY” (priority 2008, published 2010).

Legend:
[1] = system: Tat-dependent HIV transcription (HIV LTR luciferase); test: Tat transactivation of HIV LTR luciferase reporter in transfected HeLa cells; format: cell-based; conditions: ~1 μM, 8 hours
Protocol: (§1) In co-transfection experiments, human CMV-SIRT1 or CMV-SIRT1H363Y (600 ng) was co-transfected into HeLa cells plated in six-well plates with the HIV LTR luciferase reporter (200 ng) or the LTRΔNF-kB-luciferase reporter (200 ng) and increasing amounts of RSV-Tat (0 ng, 2 ng, 20 ng, and 200 ng) using the lipofectamine reagents (Invitrogen). In the control experiment, RSV-Tat was replaced by RSV luciferase (200 ng), and the HIV LTR luciferase construct was replaced by the HIV LTR CAT reporter. […] The RSV-luciferase construct was used as described above. […] Cells were harvested 8 hr later and processed for luciferase assays.

[2] = system: p53; test: p53 acetylation; format: cell-based; conditions: 1 μM
[3] = system: EF-1α promoter GFP expression; test: HIV-based lentiviral vector with EF-1α promoter driving GFP in Jurkat T cells; format: cell-based; conditions: 1 μM, 36 hours
Protocol: (§2) The HIV molecular clone (HIV-R7/E^−/GFP) containing the GFP open reading frame in place of the nef gene and a frameshift mutation in the env gene as well as the method to generate pseudotyped viral particles with VSV-G was previously described. Jordan et al. (2003) Embo J 22: 1868-1877. The number of infective particles per ml was established by infecting 3×10^5 Jurkat cells with different amounts of viral suspension. The titer of the viral stock was measured by flow cytometry analysis of GFP expression 48 hours after infection. The pHR′-EF-1α/GFP construct is a minimal nonreplicative HIV-1 genome containing a heterologous promoter (EF-1α) driving GFP expression. Naldini et al. (1996) Science 272: 263-267. […]. Zufferey et al. (1997) Nat Biotechnol 15: 871-875. All vectors for the production of HIV-based lentiviral vectors were provided by D. Trono, University of Geneva, Switzerland. Jurkat T cells were incubated overnight with HIV-R7/E^−/GFP or pHR′-EF-1α/GFP viral particles at a theoretical multiplicity of infection (m.o.i.) of 0.5 in 24-well plates. […] Viral infection was monitored 36 hours later by flow cytometry analysis using a Calibur FACScan (Becton Dickinson).

[4] = system: RSV LTR; test: RSV luciferase control reporter in transfected HeLa cells; format: cell-based, Rous sarcoma virus; conditions: 1 μM
Protocol: as §1

[5] = system: HIVNL4-3 containing the GFP open reading frame in place of nef; test: Single-cycle HIV infection of Jurkat T cells, GFP expression by flow cytometry; format: cell-based; conditions: 1 μM, 36 hours after overnight infection
Protocol: as §2

[6] = system: HIV LTR luciferase (Tat/AcTat transactivation); test: Nuclear microinjection of synthetic Tat or AcTat with HIV LTR luciferase reporter into HeLa cells; format: cell-based; conditions: for basal HIV promoter activity / transcriptional activity of AcTat (transactivation of the HIV promoter): TSA 400 nM or nicotinamide 5 mM for four hours, siRNA 48 hours before microinjection
Protocol: Subconfluent MEFs (70%) were grown on Cellocate coverslips (Eppendorf, Westbury, N.Y.), and nuclear microinjections were performed at room temperature with an automated injection system (Eppendorf Micromanipulator 5171 together with Eppendorf Transjector 5246). Samples were prepared as a 20 μl injection mix containing the HIV LTR luciferase reporter or 5xUAS luciferase (each 100 ng/μl), RSV-Tat (10 ng/μl) or Ga14-VP16 (50 ng/μl), CMV-CyclinT1 (100 ng/μl), CMV-SIRT1 (100 or 300 ng/μl) together with CMV-GFP (50 ng/μl) in sterile water. Six hours after microinjection, cells were examined under a Nikon Eclipse TE300 inverted fluorescent microscope to determine the number of GFP-positive cells, washed in cold phosphate buffer, and stored at −70° C. for luciferase assays (Promega). In HeLa cells, synthetic Tat or AcTat proteins (each 30 or 100 ng/μl) were co-injected with the wildtype or mutant HIV LTR luciferase reporters (each 100 ng/μl) together with CMV-GFP (50 ng/μl) and harvested four hours after injection. Cells were treated immediately after injection with 5,6-dichlorobenzimidazole riboside (DRB; 10 or 50 μM; Sigma), TSA (400 nM), or nicotinamide (5 mM). Microinjections in siRNA-treated cells were performed 48 hours after siRNA transfection.

[7] = target: T1, SIRT1 (Homo sapiens, UniProt Q96EB6); test: In vitro Tat deacetylation assay with immunoprecipitated SIRT1; format: biochemical; conditions: immunoprecipitated SIRT1, AcTat, NAD+; western blot α-AcTat; nicotinamide 5 mM, TSA 400 nM
T1 construct: made in house; host or cells: 293 cells (HEK 293), transient transfection, anti-FLAG M2 agarose immunoprecipitate
T1 sequence (Q96EB6 1-747): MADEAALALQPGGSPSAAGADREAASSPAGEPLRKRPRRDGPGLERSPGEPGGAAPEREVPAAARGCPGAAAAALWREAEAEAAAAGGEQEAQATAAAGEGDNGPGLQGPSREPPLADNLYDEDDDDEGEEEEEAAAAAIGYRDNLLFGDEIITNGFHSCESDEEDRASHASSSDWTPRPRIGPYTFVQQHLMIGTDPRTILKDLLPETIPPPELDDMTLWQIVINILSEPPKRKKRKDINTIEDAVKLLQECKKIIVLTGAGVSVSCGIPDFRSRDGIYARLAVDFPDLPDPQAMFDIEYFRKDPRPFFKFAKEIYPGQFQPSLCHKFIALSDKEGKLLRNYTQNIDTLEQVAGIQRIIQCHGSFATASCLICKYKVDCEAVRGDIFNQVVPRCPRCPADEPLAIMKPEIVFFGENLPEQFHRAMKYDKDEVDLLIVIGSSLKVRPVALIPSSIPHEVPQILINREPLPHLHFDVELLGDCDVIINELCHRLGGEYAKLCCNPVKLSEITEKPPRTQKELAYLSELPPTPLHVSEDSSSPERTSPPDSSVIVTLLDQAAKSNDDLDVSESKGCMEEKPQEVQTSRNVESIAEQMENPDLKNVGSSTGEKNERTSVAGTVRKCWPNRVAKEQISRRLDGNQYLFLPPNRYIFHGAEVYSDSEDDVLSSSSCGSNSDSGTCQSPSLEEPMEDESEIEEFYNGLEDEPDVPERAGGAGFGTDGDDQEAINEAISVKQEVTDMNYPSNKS
Protocol: Human SIRT1-7 FLAG-tagged plasmids were transfected in 293 cells with lipofectamine reagent (Invitrogen). Cells were lysed 24 hours after transfection with lysis buffer (50 mM Tris-Hcl, pH 7.5, 0.5 mM EDTA, 0.5% NP40, 150 mM NaCl) in the presence of protease inhibitors (Roche Molecular Biochemicals, Indianapolis, Ind.). Equal amounts of total proteins were immunoprecipitated with α-FLAG (anti-FLAG antibody) coupled to M2 agarose beads (Sigma, St Louis, Mo.), for 2 hours at 4° C. Immunoprecipitated material was washed twice with immunoprecipitation (IP) buffer and one time with SIRT deacetylation buffer (50 mM Tris-HCl pH 9, 4 mM MgCl2, 0.2 mM DTT). The beads were resuspended in 100 μl SIRT deacetylation buffer containing 1 μg synthetic Tat (72 amino acids) carrying an N-terminal biotin label and an acetyl group at position 50. Kaehlcke et al. (2003), supra. Reactions containing TSA (400 nM, WACO Bioproducts, Richmond, Va.) or nicotinamide (5 mM, Sigma) were preincubated for 10 min at room temperature. […] Reactions were stopped by the addition of SDS loading buffer, boiled, and after brief centrifugation, analyzed by western blotting with rabbit α-AcTat antibodies (Kaehlcke et al. (2003), supra) or horseradish peroxidase-conjugated streptavidin (Jackson Immunoresearch Laboratories, West Grove, Pa.). SIRT1-7 proteins were detected with polyclonal α-FLAG antibodies (Sigma).

SMILES | basal HIV promoter activity [6] | transcriptional activity of AcTat (transactivation of the HIV promoter) [6] | SIRT1-mediated deacetylation of Tat [7] | further results
O=C1Oc2ccc3cc(Br)ccc3c2CC1c1ccccc1 (stereo not drawn) [HR73] |  |  |  | suppression of Tat-dependent HIV transcription [1]: 3 fold; acetylation of p53 [2]: induced hyperacetylation; GFP expression from the EF-1α promoter [3]: not affected; activity of the RSV LTR [4]: did not suppress; reduction of HIV gene expression as measured by GFP expression [5]: 5 fold
NC(=O)c1cccnc1 [nicotinamide] | stimulating | blocked | completely inhibited | 
OC[C@H]1O[C@@H](n2cnc3cc(Cl)c(Cl)cc32)[C@H](O)[C@@H]1O [DRB, 5,6-dichlorobenzimidazole riboside] |  |  |  | transactivation by both Tat proteins (Tat and AcTat) ([6]; DRB 10 or 50 μM, four hours): inhibited in a dose-dependent manner
CC(/C=C/C(=O)NO)=C\[C@@H](C)C(=O)c1ccc(N(C)C)cc1 [TSA] | enhanced | enhanced | no effect | 
